Experimental data as given in patent US9416181B2, “Compositions for cell culture and methods of using the same” (AbbVie Inc., priority 2013, dated 2016).
“Also recorded” adds a separate entry of the source.

Tests used:
Assay type in all cases: cell-based, Chinese Hamster
[1] = test system: Cell Line 1 (CHO) expressing Antibody 1; assay: Cell culture performance (cell growth, viability, titer), Cell Line 1 3 L bioreactor fed-batch culture
Description: (§1) A recombinant Chinese Hamster Ovary (CHO) cell line (Cell Line 1) expressing a humanized monoclonal antibody (Antibody 1) was evaluated in 2 different cultures vessels (shaker flasks and 3 L laboratory-scale bioreactors). The cell line was of CHO DUX-B11 origin based on a DHFR (dihydrofolate reductase) expression system and cultured in a chemically defined basal media, and fed periodically with a chemically-defined feed media (CDFM). The media utilized throughout all of the experiments were chemically-defined, and both animal-component free, and protein-free. Each of the respective media were supplemented as needed with selected bioflavonoids to evaluate for their potential impact on the resulting acidic species profile. In preparation of the cultures, the cell lines were serially expanded through separate seed train inoculums to generate enough cells for inoculation. Process conditions utilized during the cultures were slightly different depending on the culture scale, but similar within each scale to the respective non-bioflavonoid supplemented control conditions. All bioflavonoids utilized were purchased from Sigma-Aldrich (St. Louis, Mo.).
(§2) Viable cell density (VCD) and cell viability values were measured through trypan blue exclusion via Cedex automated cell counters (Roche Applied Science, Indianapolis, Ind.), glucose and lactate values were measured with a ABL-805 (Radiometer Medical, Denmark) blood gas analyzer. Offline pH, dissolved oxygen (DO), and pCO2 measurements were performed as needed with an ABL-805 (Radiometer Medical, Denmark) blood gas analyzer. Osmolality was measured as needed on a Multi-Osmette 2430 osmometer (Precision Systems, Natick, Mass.).
(§3) Antibody titers were measured from crude cell culture harvests on a Poros A™ (Life Technologies, Carlsbad, Calif.) affinity column using an HPLC system operating with a low pH, step elution gradient with detection at 280 nm. Absolute concentrations were assigned with respect to reference standard calibration curves.
In the next experiment, lab-scale bioreactors were used to (1) confirm the shaker experiment results and (2) to determine whether higher concentration range of EGCG is suitable for supplementing into cell culture. EGCG was added to the feed of the batch culture at the concentrations of 20 mg/L (mid), 50 mg/L (high) and 125 mg/L (high+) and 250 mg/L (high++) in this reactor experiment.
Cell Line 1 was evaluated in larger-scale feed batch cultures with the feed media supplemented with various bioflavonoids. […] By contrast, cell growth performance was slightly different for the 0.1 g/L EGCG supplemented condition. […] However, the cell viability remained high at 0.1 g/L EGCG. All cultures were successfully harvested on Day 15 post-inoculation. The harvest titers measured from the evaluated cultures were similar.
Cell Line 1 was also evaluated in laboratory-scale fedbatch cultures with the feed media supplemented with various bioflavonoids. […] Cell growth performance was slightly different however with the 0.1 g/L EGCG supplemented condition. […] All cultures were able to be successfully harvested on Day 15 post-inoculation.

[2] = test system: Cell Line 1 (CHO) expressing Antibody 1; assay: Cell culture performance (cell growth, viability, titer), Cell Line 1 shake flask fed-batch culture
Description: as §1, §2, §3
In this Example, EGCG was added into the feed (cell culture medium) at the concentration range of 5 mg/L (low), 20 mg/L (mid) and 50 mg/L (high) in a shaker experiment to determine the impact of EGCG on product quality of a humanized monoclonal antibody (Antibody 1). Detailed cell culture conditions are as described in Table 1.
However, it was not clear whether or not additional bioflavonoids would also have the same effects. To evaluate the impact of alternative bioflavonoids, fed-batch shake flask cultures were initiated with CDFM supplemented with 3 different concentrations of genistein, rutin, and naringin, in addition to EGCG. Cell growth, viability, as well as titers and acidic species variants were measured.
To evaluate the impact of other bioflavonoids, fed-batch shake flask cultures were initiated with CDFM supplemented with multiple concentrations of rutin. Cell growth, viability, as well as titers and acidic species variants were measured and shown in FIGS. 14 and 15, respectively.

[3] = test system: Cell Line 1 (CHO) expressing Antibody 1; assay: Intracellular ROS by flow cytometry (H2-DCF), Cell Line 1 3 L bioreactor culture; details: bioreactor cultures; Days 6, 8, 12, 15; vs unsupplemented control
Description: At least 10×10^6 cells were harvested from 3 L bioreactor cultures on Days 6, 8, 12, and 15 after inoculation. Immediately after sampling, the samples were centrifuged and the cell pellet was washed with 1×PBS, and re-suspended in 1 mL of pre-warmed 1×PBS. 2 μL of 2 mM H2-DCF (Life Technologies, Grand Island, N.Y.) in DMSO (Sigma-Aldrich, St. Louis, Mo.) was then added and incubated at 37° C. for 30 minutes and covered from light. The cell suspension was then centrifuged and resuspended in 1×PBS twice to wash the cells and remove residual fluorophore. The cells were then loaded onto a FACSCalibur (Becton Dickinson, Franklin Lakes, N.J.) flow cytometer for the measurement of intracellular ROS at 492-495 nm/517-527 nm excitation/emission.

[4] = test system: Cell Line 2 (CHO) expressing Antibody 2; assay: Cell culture performance, Cell Line 2 lab-scale bioreactor culture; details: 0.1 g/L in 100% feed and equivalent in 50% feed
Description: Four different recombinant Chinese Hamster Ovary (CHO) cell lines expressing four different recombinant glycoproteins were evaluated in either shaker flask culture, or 3 L laboratory scale bioreactors. Cell Line 1 was genetically engineered to express Antibody 1, Cell Line 2 was genetically engineered to express Antibody 2, Cell Line 3 was genetically engineered to express dual variable domain immunoglobulin 1 (DVD1) and Cell Line 4 was genetically engineered to express dual variable domain immunoglobulin 2 (DVD2).
as §2, with “pCO2 (Dissolved carbon dioxide)” for “pCO2”
Protein A Affinity Chromatography-Antibody titers were measured from crude cell culture harvests on a Poros ATM (Life Technologies, Carlsbad, Calif.) affinity column using an HPLC system operating with a low pH, step elution gradient with detection at 280 nm. […]

[5] = concentrations above 0.1 g/L in CDFM, shake flask

O=C(O[C@@H]1Cc2c(O)cc(O)cc2O[C@@H]1c1cc(O)c(O)c(O)c1)c1cc(O)c(O)c(O)c1 [EGCG, epigallocatechin gallate]
peak viable cell density ([1]; 0.05 g/L in CDFM, bioreactor, Day 8): approximately 12×10^6 cells/mL
harvest titer vs control ([1]; 0.05 g/L in CDFM, bioreactor, Day 15 harvest): outperforming the control condition by a nominal amount; also recorded: outperformed the control condition by a nominal amount
cell growth profile vs unsupplemented control ([1]; 0.1 g/L in CDFM, bioreactor): lower than the unsupplemented control culture
cell viability ([1]; 0.1 g/L in CDFM, bioreactor): remained high
impact on cell culture performance ([1]; 250 mg/L in feed, bioreactor): reduction in early cell culture viability and titer reduction
impact on cell culture performance (cell growth, viability, titer) ([1]; 20, 50 and 125 mg/L in 1.5×JCL5 feed media, bioreactor): no impact on cell culture performance
concentration (turning point) at which peak viable cell density began to drop lower than unsupplemented control ([1]; Cell Line 1): 125 µg/mL
cell growth vs control ([2]; 0.1 g/L in CDFM, shake flask): significantly lower than that of the control culture
cell viability vs control ([2]; 0.1 g/L in CDFM, shake flask, cultures proceeded until Day 12): comparable to the control
impact on cell culture performance (cell growth, viability, titer) ([2]; 5, 20 and 50 mg/L in feed, shaker): no impact on cell culture performance
cell growth [2, 5]: adversely impacted
culture duration reached before viability became too low [2, 5]: 8 days
harvest titer ([2]; higher levels of supplement, shake flask, Day 12 harvest): decreased titer
intracellular ROS level [3]: marked reduction of overall ROS level; also recorded: reduced the intracellular ROS level in a dose-dependent fashion
impact on cell culture performance (cell growth, viability, titer) [4]: negligible impact on cell culture performance
